One test deals with KG-1 cells. Put plainly: Antiproliferative activity against KG-1 cells (CCK8). It is filed as cell-based. The settings on record: Homo sapiens, 72 h incubation, CCK8 method. As to the method:
KG-1 cells in the logarithmic growth phase were diluted in a culture medium (RPMI+10% FBS) and plated onto 96-well plates at 5000 cells/well, and the plates were incubated in an incubator at 37° C. with 5% CO2 for 24 h. 10 mM stock solutions of the test compounds of the present disclosure in DMSO were prepared and diluted with the culture medium to set 9 concentration gradients. 3 replicate wells were set for each concentration. After compound addition, the plates were incubated in an incubator at 37° C. with 5% CO2 for 72 h. The cell proliferation was assessed using the CCK8 method. The cell growth inhibition IC50 values of the compounds were determined using an enzyme labeling method. The IC50 values were calculated using GraphPad Prism 7 software.
The antiproliferative activity of the compounds against KG-1 cells is shown in Table 2, where A represents IC50≤30 nM, B represents 30<IC50≤300 nM, and C represents IC50>300 nM.
A general note: Tetrazolium assays rely on reduction of a dye to a coloured formazan, in cell work by metabolically active cells.

The target of the next test is T1, GSPT1 protein (Homo sapiens, UniProt P15170+Q96SW2).
T1 construct: Whole cell lysates were prepared; endogenous in cells; host or cells: KG-1 cells
Nature of the test: Degradation of GSPT1 in KG-1 cells (Western blot). The test is classed as cell-based. The settings on record: compound concentration 200 nM, 4 h incubation. The protocol:
KG-1 cells were grown in an IMDM culture medium (containing 20% FBS). After centrifugation and counting, the cell concentration was adjusted. The cells were plated onto 6-well plates at 10^6 cells/well, with 1350 μL per well. 150 μL of DMSO and the test compounds of the present disclosure (compound concentration: 200 nM) were added. The plates were incubated in an incubator at 37° C. with 5% CO2 for 4 h. The cells were centrifuged, and the culture medium was discarded. PBS was added to wash the cells and then discarded. Whole cell lysates were prepared using a protease inhibitor cocktail (100×, Fude Biological), a protein phosphatase inhibitor cocktail (100×, Fude Biological), Super Nuclease (Beyotime), and a high-intensity RIPA lysis buffer (Thermo Fisher) and placed on ice for 30 min. After centrifugation, the cell debris precipitates were discarded, and the whole cell lysate supernatants were collected and transferred to new centrifuge tubes. After a BCA protein assay, samples were prepared using a 5× loading buffer (Thermo Fisher). The samples were subjected to protein electrophoresis separation in a 4-20% precast gel (SDS-PAGE gel), transferred to a PVDF membrane, blocked with 5% NFDM/TBST at room temperature for 1 h, incubated overnight with primary antibodies at 4° C., and incubated with a secondary antibody at room temperature for 2 h the next day. Signals were detected using a MINICHEMITM imaging system.
• Anti-GSPT1: Abcam ab234433 • Anti-beta actin: Fude Biological FD0060
• Anti-rabbit peroxidase-linked secondary antibody: Fude Biological FDG007
The degradation effects of the compounds on GSPT1 protein are shown in Table 1, where A represents a GSPT1 protein degradation percentage of no less than 70%, B represents a degradation percentage of less than 70% but no less than 30%, and C represents a degradation percentage of less than 30%.
For orientation: Immunoblotting shows a protein as a band on a membrane.

A value given as a limit tells only on which side of the number the result lay.

T1 sequence (P15170 whole entry): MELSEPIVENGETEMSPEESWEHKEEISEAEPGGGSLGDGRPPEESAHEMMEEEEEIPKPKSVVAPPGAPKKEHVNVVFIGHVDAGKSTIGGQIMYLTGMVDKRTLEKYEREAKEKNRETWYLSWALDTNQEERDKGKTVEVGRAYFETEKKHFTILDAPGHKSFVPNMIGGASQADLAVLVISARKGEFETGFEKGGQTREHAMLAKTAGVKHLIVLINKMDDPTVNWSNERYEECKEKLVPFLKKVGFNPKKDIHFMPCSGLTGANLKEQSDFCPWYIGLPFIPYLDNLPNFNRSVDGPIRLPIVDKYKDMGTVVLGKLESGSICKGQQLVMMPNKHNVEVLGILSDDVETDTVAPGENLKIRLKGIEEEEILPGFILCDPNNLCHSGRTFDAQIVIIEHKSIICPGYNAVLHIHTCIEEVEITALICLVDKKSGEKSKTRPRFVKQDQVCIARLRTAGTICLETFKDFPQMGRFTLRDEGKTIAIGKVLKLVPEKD
T1 sequence (Q96SW2 whole entry): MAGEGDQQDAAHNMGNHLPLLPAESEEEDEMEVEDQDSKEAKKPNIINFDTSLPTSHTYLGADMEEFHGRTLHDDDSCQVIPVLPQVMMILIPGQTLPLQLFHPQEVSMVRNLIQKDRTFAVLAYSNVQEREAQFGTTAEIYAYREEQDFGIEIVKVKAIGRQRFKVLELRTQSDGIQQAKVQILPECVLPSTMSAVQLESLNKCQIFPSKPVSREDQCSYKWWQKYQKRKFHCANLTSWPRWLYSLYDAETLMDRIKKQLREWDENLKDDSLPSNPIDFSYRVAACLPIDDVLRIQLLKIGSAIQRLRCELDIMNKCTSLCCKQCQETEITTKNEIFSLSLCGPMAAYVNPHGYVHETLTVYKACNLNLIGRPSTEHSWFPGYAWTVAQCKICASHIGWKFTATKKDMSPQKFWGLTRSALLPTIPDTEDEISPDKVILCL
T1 sequence (Q16531 whole entry partner): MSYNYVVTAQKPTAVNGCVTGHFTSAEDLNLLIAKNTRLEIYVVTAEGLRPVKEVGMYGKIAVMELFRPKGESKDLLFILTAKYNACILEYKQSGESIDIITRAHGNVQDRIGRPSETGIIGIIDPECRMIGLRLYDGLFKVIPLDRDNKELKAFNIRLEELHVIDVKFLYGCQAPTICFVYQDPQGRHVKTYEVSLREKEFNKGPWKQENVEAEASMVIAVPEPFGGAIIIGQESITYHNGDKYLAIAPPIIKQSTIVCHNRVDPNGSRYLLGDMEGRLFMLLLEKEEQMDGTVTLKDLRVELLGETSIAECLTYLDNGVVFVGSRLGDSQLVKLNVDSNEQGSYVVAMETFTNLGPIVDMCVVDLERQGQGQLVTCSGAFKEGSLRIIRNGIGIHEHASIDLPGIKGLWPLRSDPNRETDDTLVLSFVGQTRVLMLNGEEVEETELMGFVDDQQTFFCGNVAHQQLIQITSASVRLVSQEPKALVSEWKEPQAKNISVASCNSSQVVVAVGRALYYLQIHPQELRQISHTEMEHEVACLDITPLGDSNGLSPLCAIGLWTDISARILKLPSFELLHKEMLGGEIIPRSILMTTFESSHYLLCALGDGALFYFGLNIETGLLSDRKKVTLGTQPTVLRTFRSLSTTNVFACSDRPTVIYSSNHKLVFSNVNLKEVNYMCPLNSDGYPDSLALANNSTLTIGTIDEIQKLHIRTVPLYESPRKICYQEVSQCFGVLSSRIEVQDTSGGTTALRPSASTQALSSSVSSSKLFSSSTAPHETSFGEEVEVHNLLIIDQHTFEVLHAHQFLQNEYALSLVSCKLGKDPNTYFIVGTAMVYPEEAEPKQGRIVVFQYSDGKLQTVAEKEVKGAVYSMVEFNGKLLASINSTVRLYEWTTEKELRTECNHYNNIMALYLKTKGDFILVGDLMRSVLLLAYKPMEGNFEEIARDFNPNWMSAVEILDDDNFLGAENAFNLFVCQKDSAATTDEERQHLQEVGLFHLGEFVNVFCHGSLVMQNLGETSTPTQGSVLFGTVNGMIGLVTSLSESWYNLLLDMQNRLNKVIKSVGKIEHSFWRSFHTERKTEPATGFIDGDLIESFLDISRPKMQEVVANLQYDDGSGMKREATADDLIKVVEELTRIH

In general, IC50 refers to the concentration needed to halve the response being measured. In general, inhibition refers to the share of the control response that was lost under treatment. A low value points to little suppression. Regarding `O=C1CCC(n2ncc3cc(CNC(=O)C4=Cc5ccccc5OC4)ccc3c2=O)C(=O)N1` (centres unmarked) [Compound T-1, N-((2-(2,6-Dioxopiperidin-3-yl)-1-oxo-1,2-dihydrophthalazin-6-yl)methyl)-2H-chromene-3-carboxamide], in the test on KG-1 cells, the IC50 fell in the range of 30 to 300 nM. Further, the inhibition at 0.2 µM on GSPT1 protein fell in the range of 30 to 70%.
As for `O=C1CCC(n2ncc3cc(NC(=O)C4=Cc5cc(F)ccc5OC4)ccc3c2=O)C(=O)N1` (centres unmarked) [Compound T-26, N-(2-(2,6-Dioxopiperidin-3-yl)-1-oxo-1,2-dihydrophthalazin-6-yl)-6-fluoro-2H-chromene-3-carboxamide], in the test with KG-1 cells, the IC50 fell in the range of 30 to 300 nM. For the same compound, the inhibition at 0.2 µM against GSPT1 protein was under 30%.
On the same counts, the results for `O=C1CCC(n2ncc3cc(NC(=O)C4=Cc5cc(OC(F)(F)F)ccc5OC4)ccc3c2=O)C(=O)N1` (centres unmarked) [Compound T-27, N-(2-(2,6-Dioxopiperidin-3-yl)-1-oxo-1,2-dihydrophthalazin-6-yl)-6-(trifluoromethoxy)-2H-chromene-3-carboxamide] are 30 to 300 nM and under 30%.
On the same counts, the results for `Cc1cccc2c1OCC(C(=O)NCc1ccc3c(=O)n(C4CCC(=O)NC4=O)ncc3c1)=C2` (centres unmarked) [Compound T-11, N-((2-(2,6-Dioxopiperidin-3-yl)-1-oxo-1,2-dihydrophthalazin-6-yl)methyl)-8-methyl-2H-chromene-3-carboxamide] are 30 to 300 nM and 30 to 70%.
As to `COc1cccc2c1C=C(C(=O)NCc1ccc3c(=O)n(C4CCC(=O)NC4=O)ncc3c1)CO2` (centres unmarked) [Compound T-7, N-((2-(2,6-Dioxopiperidin-3-yl)-1-oxo-1,2-dihydrophthalazin-6-yl)methyl)-5-methoxy-2H-chromene-3-carboxamide], the half-inhibitory concentration (IC50) with KG-1 cells is at most 30 nM. The compound further returned an inhibition at 0.2 µM against GSPT1 protein of at least 70%.
The like results for `C=Cc1ccc2c(c1)C=C(C(=O)NCc1ccc3c(=O)n(C4CCC(=O)NC4=O)ncc3c1)CO2` (centres unmarked) [Compound T-16, N-((2-(2,6-Dioxopiperidin-3-yl)-1-oxo-1,2-dihydrophthalazin-6-yl)methyl)-6-vinyl-2H-chromene-3-carboxamide] were, in that order, over 300 nM and under 30%.
`O=C1CCC(n2ncc3cc(CNC(=O)C4=Cc5ccc(F)cc5OC4)ccc3c2=O)C(=O)N1` (centres unmarked) [Compound T-4, N-((2-(2,6-Dioxopiperidin-3-yl)-1-oxo-1,2-dihydrophthalazin-6-yl)methyl)-7-fluoro-2H-chromene-3-carboxamide]: in the test on KG-1 cells, the half-maximal inhibitory concentration (IC50) was 30 to 300 nM. On GSPT1 protein, this compound gave an inhibition at 0.2 µM of 30 to 70%.
The like results for `O=C1CCC(n2ncc3cc(CNC(=O)C4COc5ccc(F)cc5C4)ccc3c2=O)C(=O)N1` (centres unmarked) [Compound T-22, N-((2-(2,6-Dioxopiperidin-3-yl)-1-oxo-1,2-dihydrophthalazin-6-yl)methyl)-6-fluorochromane-3-carboxamide] were, in that order, at most 30 nM and 30 to 70%.
The like results for `O=C1CCC(n2ncc3cc(CNC(=O)C4COc5ccccc5C4)ccc3c2=O)C(=O)N1` (centres unmarked) [Compound T-21, N-((2-(2,6-Dioxopiperidin-3-yl)-1-oxo-1,2-dihydrophthalazin-6-yl)methyl) chromane-3-carboxamide] were, in that order, 30 to 300 nM and 30 to 70%.
`Cc1cc2c(cc1Cl)C=C(C(=O)NCc1ccc3c(=O)n(C4CCC(=O)NC4=O)ncc3c1)CO2` (centres unmarked) [Compound T-20, 6-Chloro-N-((2-(2,6-dioxopiperidin-3-yl)-1-oxo-1,2-dihydrophthalazin-6-yl)methyl)-7-methyl-2H-chromene-3-carboxamide]: in the test with KG-1 cells, the 50% inhibitory concentration (IC50) was in the range of 30 to 300 nM. Also, the inhibition at 0.2 µM against GSPT1 protein lay within 30 to 70%.
Turning to `CC(C)(C)c1ccc2c(c1)C=C(C(=O)NCc1ccc3c(=O)n(C4CCC(=O)NC4=O)ncc3c1)CO2` (centres unmarked) [Compound T-17, 6-(tert-Butyl)-N-((2-(2,6-dioxopiperidin-3-yl)-1-oxo-1,2-dihydrophthalazin-6-yl)methyl)-2H-chromene-3-carboxamide], in the test on KG-1 cells, the IC50 is at most 30 nM. At GSPT1 protein, this compound came in with an inhibition at 0.2 µM of at least 70%.
In the case of `O=C1CCC(n2ncc3cc(CNC(=O)C4=Cc5cc(OC(F)(F)F)ccc5OC4)ccc3c2=O)C(=O)N1` (centres unmarked) [Compound T-10, N-((2-(2,6-Dioxopiperidin-3-yl)-1-oxo-1,2-dihydrophthalazin-6-yl)methyl)-6-(trifluoromethoxy)-2H-chromene-3-carboxamide], the IC50 with KG-1 cells is at most 30 nM. The compound further gave an inhibition at 0.2 µM against GSPT1 protein of at least 70%.
`O=C1CCC(n2ncc3cc(CNC(=O)C4=Cc5cccc(OC(F)(F)F)c5OC4)ccc3c2=O)C(=O)N1` (centres unmarked) [Compound T-9, N-((2-(2,6-Dioxopiperidin-3-yl)-1-oxo-1,2-dihydrophthalazin-6-yl)methyl)-8-(trifluoromethoxy)-2H-chromene-3-carboxamide] came in with a concentration for half-maximal inhibition (IC50) in the test with KG-1 cells of at most 30 nM. This compound displayed an inhibition at 0.2 µM against GSPT1 protein of 30 to 70%.
The like results for `O=C1CCC(n2ncc3cc(CNC(=O)C4=Cc5c(F)cccc5OC4)ccc3c2=O)C(=O)N1` (centres unmarked) [Compound T-2, N-((2-(2,6-Dioxopiperidin-3-yl)-1-oxo-1,2-dihydrophthalazin-6-yl)methyl)-5-fluoro-2H-chromene-3-carboxamide] were, in that order, at most 30 nM and at least 70%.
Take `O=C1CCC(n2ncc3cc(CNC(=O)C4=Cc5cc(F)ccc5OC4)ccc3c2=O)C(=O)N1` (centres unmarked) [Compound T-3, N-((2-(2,6-Dioxopiperidin-3-yl)-1-oxo-1,2-dihydrophthalazin-6-yl)methyl)-6-fluoro-2H-chromene-3-carboxamide]: in the test on KG-1 cells, the half-inhibitory concentration (IC50) lay within 30 to 300 nM. This compound also displayed an inhibition at 0.2 µM against GSPT1 protein of 30 to 70%.
Take `O=C1CCC(n2ncc3cc(CNC(=O)C4COc5ccc(OC(F)(F)F)cc5C4)ccc3c2=O)C(=O)N1` (centres unmarked) [Compound T-23, N-((2-(2,6-Dioxopiperidin-3-yl)-1-oxo-1,2-dihydrophthalazin-6-yl)methyl)-6-(trifluoromethoxy) chromane-3-carboxamide]: the IC50 with KG-1 cells was at most 30 nM. Besides, the inhibition at 0.2 µM against GSPT1 protein was at least 70%.
The like results for `O=C1CCC(n2ncc3cc(CNC(=O)C4=Cc5cccc(F)c5OC4)ccc3c2=O)C(=O)N1` (centres unmarked) [Compound T-5, N-((2-(2,6-Dioxopiperidin-3-yl)-1-oxo-1,2-dihydrophthalazin-6-yl)methyl)-8-fluoro-2H-chromene-3-carboxamide] were, in that order, at most 30 nM and 30 to 70%.
On the same counts, the results for `COc1cccc2c1OCC(C(=O)NCc1ccc3c(=O)n(C4CCC(=O)NC4=O)ncc3c1)=C2` (centres unmarked) [Compound T-6, N-((2-(2,6-Dioxopiperidin-3-yl)-1-oxo-1,2-dihydrophthalazin-6-yl)methyl)-8-methoxy-2H-chromene-3-carboxamide] are 30 to 300 nM and 30 to 70%.
Regarding `Cc1ccc2c(c1)C=C(C(=O)NCc1ccc3c(=O)n(C4CCC(=O)NC4=O)ncc3c1)CO2` (centres unmarked) [Compound T-12, N-((2-(2,6-Dioxopiperidin-3-yl)-1-oxo-1,2-dihydrophthalazin-6-yl)methyl)-6-methyl-2H-chromene-3-carboxamide], the IC50 in the test on KG-1 cells was in the range of 30 to 300 nM. The inhibition at 0.2 µM at GSPT1 protein is 30 to 70%.
The like results for `O=C1CCC(n2ncc3cc(CNC(=O)C4=Cc5cc(Br)ccc5OC4)ccc3c2=O)C(=O)N1` (centres unmarked) [Compound T-14, 6-Bromo-N-((2-(2,6-dioxopiperidin-3-yl)-1-oxo-1,2-dihydrophthalazin-6-yl)methyl)-2H-chromene-3-carboxamide] were, in that order, 30 to 300 nM and 30 to 70%.
The like results for `O=C1CCC(n2ncc3cc(CNC(=O)C4=Cc5cc(F)cc(F)c5OC4)ccc3c2=O)C(=O)N1` (centres unmarked) [Compound T-19, N-((2-(2,6-Dioxopiperidin-3-yl)-1-oxo-1,2-dihydrophthalazin-6-yl)methyl)-6,8-difluoro-2H-chromene-3-carboxamide] were, in that order, 30 to 300 nM and 30 to 70%.
On the same counts, the results for `O=C1CCC(n2ncc3cc(CNC(=O)C4CNc5ccccc5C4)ccc3c2=O)C(=O)N1` (centres unmarked) [Compound T-24, N-((2-(2,6-Dioxopiperidin-3-yl)-1-oxo-1,2-dihydrophthalazin-6-yl)methyl)-1,2,3,4-tetrahydroquinoline-3-carboxamide] are 30 to 300 nM and at least 70%.

(Values after patent US20260263459A1, “PHTHALAZINONE GSPT1 PROTEIN DEGRADING AGENT AND USE THEREOF” (CHINA PHARMACEUTICAL UNIVERSITY, priority 2023, published 2026).)
